Laboratory results from patent publication EP2145877A2, “Aurora Kinase inhibitors” (Takeda Pharmaceutical Company Limited, priority 2006, dated 2008).

Target: Aurora B/INCENP (Homo sapiens, UniProt Q96GD4)
Experiment: Inhibition of AIK: Aurora B/INCENP Direct Fluorescence Polarization (IMAP) kinase assay
Assay type: biochemical
Conditions: IC50 against AIK B; 10 uM ATP, 0.8 nM Aurora B/INCENP, 45 min at room temperature, FP readout; values given as bins
Experimental: Detection of the reaction product is performed by addition of Progressive IMAP binding reagent (Molecular Devices). Reaction product may be determined quantitatively by FP using an Analyst HT plate reader (Molecular Devices) with an excitation wavelength at 485 nm and emission at 530 nm and using a Fluorescein 505 dichroic mirror.
The assay reaction may be initiated as follows: 2 ul of (3x) 300 nM Fl-Peptide/30 uM ATP was added to each well of the plate, followed by the addition of 2 ul of (3x) inhibitor (2 fold serial dilutions for 11 data points for each inhibitor) containing 15% DMSO. Two microliters of (3x) 2.4 nM AuroraB/INCENP solution may be added to initiate the reaction (final enzyme concentration was 0.8 nM for Aurora B/INCENP). The reaction mixture may then be incubated at room temperature for 45 min, and quenched and developed by addition of 20 ul of 1 to 400 diluted Progressive IMAP binding reagent in 1x proprietary Progressive IMAP binding buffer A. Fluorescence polarization readings of the resulting reaction mixtures may be measured after a 60-minute incubation at room temperature.
IC50 values may be calculated by non-linear curve fitting of the compound concentrations and fluorescent polarization values to the standard IC50 equation.

Aurora B/INCENP, sequence (Q96GD4 whole entry): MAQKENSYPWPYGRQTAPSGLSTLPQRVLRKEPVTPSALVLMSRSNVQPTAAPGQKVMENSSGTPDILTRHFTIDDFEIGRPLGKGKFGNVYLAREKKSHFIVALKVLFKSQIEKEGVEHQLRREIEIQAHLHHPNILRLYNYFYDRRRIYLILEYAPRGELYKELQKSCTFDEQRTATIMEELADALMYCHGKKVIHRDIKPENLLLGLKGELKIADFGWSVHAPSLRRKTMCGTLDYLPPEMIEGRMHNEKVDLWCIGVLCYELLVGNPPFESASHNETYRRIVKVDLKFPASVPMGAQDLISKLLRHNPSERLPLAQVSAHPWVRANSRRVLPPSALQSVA
Aurora B/INCENP, sequence (Q9NQS7 whole entry partner): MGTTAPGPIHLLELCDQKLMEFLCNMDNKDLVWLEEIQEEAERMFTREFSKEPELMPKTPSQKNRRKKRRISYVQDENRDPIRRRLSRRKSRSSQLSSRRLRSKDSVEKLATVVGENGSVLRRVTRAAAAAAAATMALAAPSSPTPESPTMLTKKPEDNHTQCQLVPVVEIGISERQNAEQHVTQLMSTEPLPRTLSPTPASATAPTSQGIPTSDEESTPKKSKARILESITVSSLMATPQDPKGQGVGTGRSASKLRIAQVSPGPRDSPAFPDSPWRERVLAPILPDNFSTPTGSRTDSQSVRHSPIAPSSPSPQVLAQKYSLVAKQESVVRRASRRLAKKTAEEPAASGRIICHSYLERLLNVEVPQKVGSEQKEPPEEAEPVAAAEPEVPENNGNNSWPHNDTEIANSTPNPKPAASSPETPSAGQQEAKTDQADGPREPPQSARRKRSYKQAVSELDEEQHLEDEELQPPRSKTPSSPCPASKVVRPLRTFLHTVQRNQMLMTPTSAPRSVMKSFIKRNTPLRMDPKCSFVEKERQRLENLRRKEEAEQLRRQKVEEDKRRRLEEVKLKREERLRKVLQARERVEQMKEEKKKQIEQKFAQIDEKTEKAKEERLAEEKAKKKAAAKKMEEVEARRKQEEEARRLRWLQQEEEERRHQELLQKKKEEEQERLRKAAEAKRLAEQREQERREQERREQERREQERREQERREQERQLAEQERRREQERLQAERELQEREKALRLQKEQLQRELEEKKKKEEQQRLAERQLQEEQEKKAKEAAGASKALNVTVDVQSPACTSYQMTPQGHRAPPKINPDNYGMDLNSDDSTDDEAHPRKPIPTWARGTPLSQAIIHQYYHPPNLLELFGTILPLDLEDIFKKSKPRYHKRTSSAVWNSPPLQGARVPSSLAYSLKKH

SMILES	IC50 [nM]
CNS(=O)(=O)c1cccc(-c2ccc(C)c3[nH]c4ncc(C)cc4c23)c1 [Compound 15, 3-(3,8-dimethyl-9H-pyrido[2,3-b]indol-5-yl)-N-methylbenzenesulfonamide]	≤ 5
CCS(=O)(=O)c1cccc(-c2cnc(Cl)c3[nH]c4ncc(C)cc4c23)c1 [Compound 40, 8-chloro-5-[3-(ethylsulfonyl)phenyl]-3-methyl-9H-pyrido[4',3':4,5]pyrrolo[2,3-b]pyridine]	≤ 5
CCS(=O)(=O)c1cccc(-c2cnc(OCCCO)c3[nH]c4ncc(C)cc4c23)c1 [Compound 55, 3-[5-(3-Ethanesulfonyl-phenyl)-3-methyl-9H-dipyrido[2,3-b;4',3'-d]pyrrol-8-yloxy]-propan-1-ol]	≤ 5
CCS(=O)(=O)c1cccc(-c2cnc(OC[C@H](C)O)c3[nH]c4ncc(C)cc4c23)c1 [Compound 62, (S)-1-[5-(3-Ethanesulfonyl-phenyl)-3-methyl-9H-dipyrido[2,3-b;4',3'-d]pyrrol-8-yloxy]-propan-2-ol]	≤ 5
CCS(=O)(=O)c1cccc(-c2cnc(OCC3CCN(C)CC3)c3[nH]c4ncc(Cl)cc4c23)c1 [Compound 72, 3-Chloro-5-(3-ethanesulfonyl-phenyl)-8-(1-methyl-piperidin-4-ylmethoxy)-9H-dipyrido[2,3-b;4',3'-d]pyrrole]	≤ 5
CCS(=O)(=O)c1cccc(-c2cc(C(=O)NC[C@H](C)O)c(C)c3[nH]c4ncc(C)cc4c23)c1 [Compound 100, (S)-5-(3-(ethylsulfonyl)phenyl)-N-(2-hydroxypropyl)-3,8-dimethyl-9H-pyrido[2,3-b]indole-7-carboxamide]	≤ 5
CCS(=O)(=O)c1cccc(-c2cc(C(=O)NCCO)c(C)c3[nH]c4ncc(C)cc4c23)c1 [Compound 101, 5-(3-(ethylsulfonyl)phenyl)-N-(2-hydroxyethyl)-3,8-dimethyl-9H-pyrido[2,3-b]indole-7-carboxamide]	≤ 5
CCS(=O)(=O)c1cccc(-c2cc(C(N)=O)cc3[nH]c4ncc(C)cc4c23)c1 [Compound 128, 5-(3-Ethanesulfonyl-phenyl)-3-methyl-9H-pyrido[2,3-b]indole-7-carboxylic acid amide]	≤ 5
CCS(=O)(=O)c1cccc(-c2cc(C(=O)O)cc3[nH]c4ncc(C)cc4c23)c1 [Compound 140, 5-(3-Ethanesulfonyl-phenyl)-3-methyl-9H-pyrido[2,3-b]indole-7-carboxylic acid]	≤ 5
CCS(=O)(=O)c1cccc(-c2ccc(OC)c3[nH]c4ncc(C)cc4c23)c1 [Compound 157]	≤ 5
CCS(=O)(=O)c1cccc(-c2ccc(O)c3[nH]c4ncc(C)cc4c23)c1 [Compound 158, 5-(3-(ethylsulfonyl)phenyl)-3-methyl-9H-pyrido[2,3-b]indol-8-ol]	≤ 5
CCNS(=O)(=O)c1cccc(-c2ccc(OC)c3[nH]c4ncc(C)cc4c23)c1 [Compound 170, N-ethyl-3-(8-methoxy-3-methyl-9H-pyrido[2,3-b]indol-5-yl)benzenesulfonamide]	≤ 5
CCS(=O)(=O)c1cccc(-c2ccc(OCC3CCNCC3)c3[nH]c4ncc(C)cc4c23)c1 [Compound 185, 5-(3-(ethylsulfonyl)phenyl)-3-methyl-8-(piperidin-4-ylmethoxy)-9H-pyrido[2,3-b]indole]	≤ 5
Cc1cnc2[nH]c3c(OCCCN(C)C)ccc(-c4cccc(S(=O)(=O)C5CC5)c4)c3c2c1 [Compound 194, 3-(5-(3-(cyclopropylsulfonyl)phenyl)-3-methyl-9H-pyrido[2,3-b]indol-8-yloxy)-N,N-dimethylpropan-1-amine]	≤ 5
CCS(=O)(=O)c1cccc(-c2ccc(OCC3CCN(C)CC3)c3[nH]c4ncc(Cl)cc4c23)c1 [Compound 200, 3-chloro-5-(3-(ethylsulfonyl)phenyl)-8-((1-methylpiperidin-4-yl)methoxy)-9H-pyrido[2,3-b]indole]	≤ 5
CCS(=O)(=O)c1cccc(-c2ccc(OCC3CCNCC3)c3[nH]c4ncc(Cl)cc4c23)c1 [Compound 201, 3-chloro-5-(3-(ethylsulfonyl)phenyl)-8-(piperidin-4-ylmethoxy)-9H-pyrido[2,3-b]indole]	≤ 5
CCS(=O)(=O)c1cccc(-c2ccc(OCCCN(C)C)c3[nH]c4ncc(C)cc4c23)c1 [Compound 206, 3-(5-(3-(ethylsulfonyl)phenyl)-3-methyl-9H-pyrido[2,3-b]indol-8-yloxy)-N,N-dimethylpropan-1-amine]	≤ 5
CCS(=O)(=O)c1cccc(-c2ccc(OCCCO)c3[nH]c4ncc(C)cc4c23)c1 [Compound 217, 3-(5-(3-(ethylsulfonyl)phenyl)-3-methyl-9H-pyrido[2,3-b]indol-8-yloxy)propan-1-ol]	≤ 5
CCS(=O)(=O)c1cccc(-c2ccc(OCCCN(C)C)c3[nH]c4ncc(Cl)cc4c23)c1 [Compound 220, 3-(3-chloro-5-(3-(ethylsulfonyl)phenyl)-9H-pyrido[2,3-b]indol-8-yloxy)-N,N-dimethylpropan-1-amine]	≤ 5
CCS(=O)(=O)c1cccc(-c2ccc(OC[C@H](O)CO)c3[nH]c4ncc(C)cc4c23)c1 [Compound 231, (R)-3-(5-(3-(ethylsulfonyl)phenyl)-3-methyl-9H-pyrido[2,3-b]indol-8-yloxy)propane-1,2-diol]	≤ 5
CCN(CCO)CCCOc1ccc(-c2cccc(S(=O)(=O)C3CC3)c2)c2c1[nH]c1ncc(C)cc12 [Compound 270, 2-((3-(5-(3-(cyclopropylsulfonyl)phenyl)-3-methyl-9H-pyrido[2,3-b]indol-8-yloxy)propyl)(ethyl)amino)ethanol]	≤ 5
CCN(CCCOc1ccc(-c2cccc(S(=O)(=O)C3CC3)c2)c2c1[nH]c1ncc(Cl)cc12)CCOP(=O)(O)O [Compound 299, 2-((3-(3-chloro-5-(3-(cyclopropylsulfonyl)phenyl)-9H-pyrido[2,3-b]indol-8-yloxy)propyl)(ethyl)ammo)ethyl dihydrogen phosphate]	≤ 5
Cc1cnc2[nH]c3c(OC[C@@H](O)CN(C)C)ccc(-c4cccc(S(=O)(=O)C5CC5)c4)c3c2c1 [Compound 313, (S)-1-(5-(3-(cyclopropylsulfonyl)phenyl)-3-methyl-9H-pyrido[2,3-b]indol-8-yloxy)-3-(dimethylamino)propan-2-ol]	≤ 5
